Laboratory results: PubChem BioAssay (NCI)
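Growth conditions: 96-well plates. Treatment: test compound, 48 hours, 5 concentrations. Analysis: linear interpolation between bracketing concentrations; unreached endpoints set to highest concentration. TGI denotes the concentration required for complete inhibition of growth.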

What was measured:
Assay in all cases: growth of human tumour cells (NCI), 48 h
SNB-19 CNS = system: SNB-19 CNS
PC-3 prostate = system: PC-3 prostate
HOP-92 NSCLC = system: HOP-92 NSCLC
MDA-MB-231 breast = system: MDA-MB-231 breast
UACC-62 melanoma = system: UACC-62 melanoma
SW-620 colon = system: SW-620 colon
LOX IMVI melanoma = system: LOX IMVI melanoma
SK-OV-3 ovarian = system: SK-OV-3 ovarian
TK-10 renal = system: TK-10 renal
NCI/ADR-RES ovarian = system: NCI/ADR-RES ovarian
SN12C renal = system: SN12C renal
OVCAR-8 ovarian = system: OVCAR-8 ovarian
BT-549 breast = system: BT-549 breast
SK-MEL-5 melanoma = system: SK-MEL-5 melanoma
OVCAR-5 ovarian = system: OVCAR-5 ovarian
ACHN renal = system: ACHN renal
A498 renal = system: A498 renal
MCF7 breast = system: MCF7 breast
CCRF-CEM leukemia = system: CCRF-CEM leukemia
COLO 205 colon = system: COLO 205 colon
OVCAR-3 ovarian = system: OVCAR-3 ovarian
UACC-257 melanoma = system: UACC-257 melanoma
HCC-2998 colon = system: HCC-2998 colon
HCT-15 colon = system: HCT-15 colon
RPMI-8226 leukemia = system: RPMI-8226 leukemia
MOLT-4 leukemia = system: MOLT-4 leukemia
HT29 colon = system: HT29 colon
SR leukemia = system: SR leukemia
786-0 renal = system: 786-0 renal
OVCAR-4 ovarian = system: OVCAR-4 ovarian
MALME-3M melanoma = system: MALME-3M melanoma
K-562 leukemia = system: K-562 leukemia
SK-MEL-2 melanoma = system: SK-MEL-2 melanoma
NCI-H226 lung = system: NCI-H226 lung
DU-145 prostate = system: DU-145 prostate
A549 NSCLC = system: A549 NSCLC
SK-MEL-28 melanoma = system: SK-MEL-28 melanoma
MDA-N = system: MDA-N
SF-295 CNS = system: SF-295 CNS
CAKI-1 renal = system: CAKI-1 renal
HOP-62 NSCLC = system: HOP-62 NSCLC
NCI-H23 lung = system: NCI-H23 lung
U251 CNS = system: U251 CNS
HCT-116 colon = system: HCT-116 colon
HL-60(TB) leukemia = system: HL-60(TB) leukemia
MDA-MB-435 = system: MDA-MB-435
T-47D breast = system: T-47D breast
SF-268 CNS = system: SF-268 CNS
IGROV1 ovarian = system: IGROV1 ovarian
NCI-H522 lung = system: NCI-H522 lung
M14 melanoma = system: M14 melanoma
RXF 393 renal = system: RXF 393 renal
NCI-H460 lung = system: NCI-H460 lung
KM12 colon = system: KM12 colon
UO-31 renal = system: UO-31 renal
SNB-75 CNS = system: SNB-75 CNS
EKVX NSCLC = system: EKVX NSCLC
HS 578T breast = system: HS 578T breast
SF-539 CNS = system: SF-539 CNS

NC(=O)c1cc2cc(Cl)cc(Cl)c2oc1=Nc1ccc(F)cc1
TGI (SNB-19 CNS): 42.3 µM | TGI (PC-3 prostate): 44.3 µM | TGI (HOP-92 NSCLC): 80.4 µM | TGI (MDA-MB-231 breast): 35.6 µM | TGI (UACC-62 melanoma): 63.7 µM | TGI (SW-620 colon): > 100 µM | TGI (LOX IMVI melanoma): > 100 µM | TGI (SK-OV-3 ovarian): 56.5 µM | TGI (TK-10 renal): 30 µM | TGI (NCI/ADR-RES ovarian): 34.5 µM | TGI (SN12C renal): 38 µM | TGI (OVCAR-8 ovarian): > 100 µM | TGI (BT-549 breast): 37 µM | TGI (SK-MEL-5 melanoma): 31.7 µM | TGI (OVCAR-5 ovarian): 54.6 µM | TGI (ACHN renal): 41.8 µM | TGI (A498 renal): 35.3 µM | TGI (MCF7 breast): 45.1 µM | TGI (CCRF-CEM leukemia): > 100 µM | TGI (COLO 205 colon): 40.6 µM | TGI (OVCAR-3 ovarian): 52.9 µM | TGI (UACC-257 melanoma): 42.8 µM | TGI (HCC-2998 colon): 48.9 µM | TGI (HCT-15 colon): 42.3 µM | TGI (RPMI-8226 leukemia): 61.7 µM | TGI (MOLT-4 leukemia): 37.1 µM | TGI (HT29 colon): > 100 µM | TGI (SR leukemia): 24.8 µM | TGI (786-0 renal): 25.3 µM | TGI (OVCAR-4 ovarian): 70.6 µM | TGI (MALME-3M melanoma): 43 µM | TGI (K-562 leukemia): 27.5 µM | TGI (SK-MEL-2 melanoma): 31.6 µM | TGI (NCI-H226 lung): 43.5 µM | TGI (DU-145 prostate): 41.8 µM | TGI (A549 NSCLC): 70.1 µM | TGI (SK-MEL-28 melanoma): 46.3 µM | TGI (MDA-N): 66.5 µM | TGI (SF-295 CNS): 39.3 µM | TGI (CAKI-1 renal): 38 µM | TGI (HOP-62 NSCLC): > 100 µM | TGI (NCI-H23 lung): 27.8 µM | TGI (U251 CNS): 41.2 µM | TGI (HCT-116 colon): 38.3 µM | TGI (HL-60(TB) leukemia): > 100 µM | TGI (MDA-MB-435): 44.2 µM | TGI (T-47D breast): 73.5 µM | TGI (SF-268 CNS): > 100 µM | TGI (IGROV1 ovarian): 87.3 µM | TGI (NCI-H522 lung): 38.1 µM | TGI (M14 melanoma): 45.5 µM | TGI (RXF 393 renal): 37 µM | TGI (NCI-H460 lung): 35.5 µM | TGI (KM12 colon): > 100 µM | TGI (UO-31 renal): > 100 µM | TGI (SNB-75 CNS): 30.3 µM | TGI (EKVX NSCLC): 34.5 µM | TGI (HS 578T breast): > 100 µM

CCOC(=O)c1c2c(n3ccccc13)C(=O)c1ccccc1C2=O
TGI (SNB-19 CNS): > 100 µM | TGI (PC-3 prostate): > 100 µM | TGI (HOP-92 NSCLC): > 100 µM | TGI (MDA-MB-231 breast): > 100 µM | TGI (UACC-62 melanoma): > 100 µM | TGI (SW-620 colon): > 100 µM | TGI (LOX IMVI melanoma): > 100 µM | TGI (SK-OV-3 ovarian): > 100 µM | TGI (TK-10 renal): > 100 µM | TGI (NCI/ADR-RES ovarian): > 100 µM | TGI (SN12C renal): > 100 µM | TGI (OVCAR-8 ovarian): > 100 µM | TGI (BT-549 breast): > 100 µM | TGI (SK-MEL-5 melanoma): > 100 µM | TGI (SF-539 CNS): > 100 µM | TGI (OVCAR-5 ovarian): > 100 µM | TGI (ACHN renal): > 100 µM | TGI (A498 renal): > 100 µM | TGI (MCF7 breast): > 100 µM | TGI (COLO 205 colon): > 100 µM | TGI (OVCAR-3 ovarian): > 100 µM | TGI (UACC-257 melanoma): > 100 µM | TGI (HCC-2998 colon): 7.59 µM | TGI (HCT-15 colon): > 100 µM | TGI (RPMI-8226 leukemia): > 100 µM | TGI (MOLT-4 leukemia): > 100 µM | TGI (HT29 colon): > 100 µM | TGI (SR leukemia): > 100 µM | TGI (786-0 renal): > 100 µM | TGI (OVCAR-4 ovarian): > 100 µM | TGI (MALME-3M melanoma): > 100 µM | TGI (K-562 leukemia): > 100 µM | TGI (SK-MEL-2 melanoma): > 100 µM | TGI (NCI-H226 lung): > 100 µM | TGI (DU-145 prostate): > 100 µM | TGI (A549 NSCLC): 43.2 µM | TGI (SK-MEL-28 melanoma): > 100 µM | TGI (MDA-N): > 100 µM | TGI (SF-295 CNS): > 100 µM | TGI (CAKI-1 renal): > 100 µM | TGI (HOP-62 NSCLC): > 100 µM | TGI (NCI-H23 lung): > 100 µM | TGI (U251 CNS): > 100 µM | TGI (HCT-116 colon): > 100 µM | TGI (HL-60(TB) leukemia): > 100 µM | TGI (MDA-MB-435): > 100 µM | TGI (T-47D breast): > 100 µM | TGI (SF-268 CNS): > 100 µM | TGI (IGROV1 ovarian): > 100 µM | TGI (NCI-H522 lung): > 100 µM | TGI (M14 melanoma): > 100 µM | TGI (RXF 393 renal): > 100 µM | TGI (NCI-H460 lung): 15.6 µM | TGI (KM12 colon): > 100 µM | TGI (UO-31 renal): > 100 µM | TGI (SNB-75 CNS): 74.6 µM | TGI (EKVX NSCLC): > 100 µM | TGI (HS 578T breast): > 100 µM
